Measured values published in patent US5008291A, “Method and composition for achieving chemotherapeutic activity” (Ohio State University Research Foundation, priority 1989, dated 1991).
Entries after “also recorded” stand apart in the source; their conditions may differ.

Experiments:
[1] = tested on: beta-glucuronidase; conditions: cells, blood, urine, intestine (and liver); cited from earlier work
[2] = Body weight of rats, Example II; type: in vivo, female Sprague Dawley rats; conditions: for Final Weight: end of experiment; for Initial Weight: just before treatment
Experimental: Rat mammary tumors were induced by treating one hundred 50 day old female Sprague Dawley rats (Harlan Industries, Indianapolis, Ind.) by gavage with a single dose of 15 mg of 7,12-dimethylbenz(a)anthracene (Sigma Chemical Co., St. Louis, Mo.) in 1.0 ml of sesame oil, Abou-Issa et al., Proc. Natl. Acad. Sci. U.S.A., supra. The rats were maintained on a chow diet ad libitum until the tumors had formed in 70% of the rats and had reached a size of approximately 2.0 cm in diameter; 4 months later at which time they were randomized into six groups of 10 rats each. […] The latter vehicle was added to the diet of all six groups. The additives were blended into the diet with a mechanical mixer.
Tumor regression is indicated by at least 20% reduction in tumor size and each tumor is compared to its initial size on day zero. Weights of the rats on the control and experimental diets were recorded weekly.

[3] = tested on: sex hormones; conditions: CGT diet; anti-promotional effect; cited from earlier work
[4] = as calcium glucarate; cited from earlier work
[5] = tested on: 7,12-dimethylbenz(a)anthracene-induced mammary tumorigenesis; conditions: cited from earlier work
[6] = tested on: Estrogen Receptors; experiment: Estrogen receptors of established DMBA-induced mammary tumors; type: in vivo, female Sprague Dawley rats; conditions: N 7
Experimental: (§1) Estrogen and progesterone receptors were measured in the OSU Hormone Receptor Laboratory by the multipoint dextran-coated charcoal method as previously described in Schuller et al., Estrogen and progesterone receptors in head and neck cancer, Arch. […] The data of specific binding were analyzed by Scatchard, The Attraction of proteins for small molecules and ions, Ann. N.Y. Acad. Sci. 51:660-672 (1949), plots to determine the equilibrium dissociation constant (Kd) and binding capacity expressed as femtomoles of estradiol or progesterone (R-5020) specifically bound per mg of cytosol protein for estrogen and progesterone receptors respectively. Cytosol protein concentrations were determined by the procedure of Lowry et al., Protein measurement with the folin phenol reagent, J. Biol. Chem. 193:265-275 (1951).

[7] = Body weight gain of rats, Example I (FIG. 4); type: in vivo, female Sprague Dawley rats; conditions: prolonged feeding of diets containing CGT and HPR
[8] = CGT-supplemented diet; cited from earlier work
[9] = tested on: Progesterone Receptors; experiment: Progesterone receptors of established DMBA-induced mammary tumors; type: in vivo, female Sprague Dawley rats; conditions: N 7
Experimental: as §1

[10] = tested on: established DMBA-induced mammary tumors; experiment: Growth of established DMBA-induced rat mammary tumors, Example II; type: in vivo, female Sprague Dawley rats; conditions: for increase of tumor size / decrease of mammary tumor size: 25 days; for increase of tumor size: controls 98%; for tumor growth: diets supplemented with low ineffective doses; for effect on tumor growth/development when fed separately: low (ineffective) dosages fed separately
Experimental: Louis, Mo.) in 1.0 ml of sesame oil, Abou-Issa et al., Proc. Natl. Acad. Sci. U.S.A., supra. […] Tumor sizes were measured in all the rats just before placing them on the following experimental diets (Groups I-VI): (I) rat chow (RMH 3200, Pro Lab, Syracuse, N.Y.); […] Natl. Acad. Sci. U.S.A., supra. The latter vehicle was added to the diet of all six groups. The additives were blended into the diet with a mechanical mixer. All the tumors that developed within the time frame of this example are histologically adenocarcinomas. This finding has been previously reported by Huggins et al., Mammary cancer induced by a single feeding of polynuclear hydrocarbons, and its suppression, Nature, 185:204-207 (1961), in this animal model under the same conditions, and has been confirmed in several indentical experiments. At later time periods beyond the time frame of this example fibroadenomas usually develop, Welsch et al., In "Cellular and Molecular Biology of Mammary Cancer", ([…] and E. Anderson, eds.) Plenum Press, N.Y. 1987, pp 163-179. Tumor measurements were began at the time the rats were placed on the experimental diets and were continued twice weekly throughout the duration of the experiment. Two axes were measured - the longest axis (L) and the axis at right angles to the longest (W), using a vernier caliper. […] Weights of the rats on the control and experimental diets were recorded weekly.

[11] = tested on: DMBA-induced mammary tumors; experiment: DMBA-induced mammary tumor formation (chemoprevention), Example I; type: in vivo, female Sprague Dawley rats; conditions: for No. of Rats with Tumors / Total No. Tumors: 20 rats
Experimental: They were maintained on the diets for approximately 4 mos., and were examined (palpated) for mammary tumors weekly. […] The retinoid (HPR) was first dissolved in 25 ml of a vehicle consisting of ethanol-tricaprylin-6% α-tocopherol, then thoroughly mixed with powdered rat chow.

[12] = tested on: chemical carcinogenesis; conditions: sustained release dietary form; liver, lung, skin, mammary gland; cited from earlier work
[13] = tested on: MCF-7 cells; experiment: Growth of MCF-7 cells (GL, HPR, GL and HPR), Table II; type: cell-based, human; conditions: 5 days; for No. of viable cells: mean ± SE of three experiments
Excerpt: The values shown are the mean +/- ISE for three experiments counted in triplicates. The numbers in parenthesis indicate the number of free floating (mostly non viable) cells in the media.

[14] = tested on: established mammary tumors; experiment: HPR on established mammary tumors in CD8 F1 mice; type: in vivo; conditions: CD8 F1 mice with established mammary tumors
[15] = tested on: established DMBA-induced mammary tumors; experiment: HPR on already established DMBA-induced mammary tumors; type: in vivo, female Sprague Dawley rats
Experimental: When higher doses (2 mmol/kg diet) of HPR were used, growth arrest was followed within 5 to 10 days by 30% regression of the DMBA-induced mammary tumors. Also, HPR (0.1 uM) inhibited the […] growth of the human breast cancer cell line (MCF-7) to 50% of the control within 7 days.

[16] = rat, in vivo; cited from earlier work

In the case of “2,4-di-O-acetyl-D-glucaro-1,4-lactone [reference compound]”, the inhibition of beta-glucuronidase [1] is given as “effective as inhibitors of beta-glucuronidase”.

With O=C([O-])[C@@H](O)[C@@H](O)[C@H](O)[C@@H](O)C(=O)[O-].[Ca+2] [CGT, calcium glucarate] the “Final Weight” value ([2]; CGT (2%)) was 415 +/- 15 gm, the “Initial Weight” value ([2]; CGT (2%)) was 401 +/- 10 gm and the “Final Weight” value ([2]; CGT (4%)) was 429 +/- 26 gm. For the same molecule, the “Initial Weight” value ([2]; CGT (4%)) was 404 +/- 22 gm, the “steady-state level of sex hormones” value [3] was “reduction in the steady-state level of sex hormones” and the inhibition of beta-glucuronidase [1] was “effective as inhibitors of beta-glucuronidase”. For the same molecule, the “dietary dosage that is non-toxic” value [4] was “up to 10 % in the diet”, the “tumor induction relative to controls” value ([5]; 4% CGT diet from two weeks after carcinogen, by 28 weeks) was 30 % of that in the controls and the regression of tumors ([5]; chow diet supplemented with CGT, some tumors) was “underwent regression”. The “Estrogen Receptors” value ([6]; CGT (2%)) was 42.7 +/- 7.0 Fmoles/mg Protein, the “Estrogen Receptors” value ([6]; CGT (4%)) was 44.3 +/- 5.9 Fmoles/mg Protein and the “effect on weight gain” value [7] was “did not affect weight gain”. For the same molecule, the “food quantity and weight gain” value [8] was “identical to those on the normal chow diet”, the “Progesterone Receptors” value ([9]; CGT (2%)) was 84.4 +/- 17.0 Fmoles/mg Protein and the “Progesterone Receptors” value ([9]; CGT (4%)) was 82.0 +/- 16.0 Fmoles/mg Protein. The “increase of tumor size” value ([10]; CGT 64 mmol/kg) was 55%, the “decrease of mammary tumor size” value ([10]; CGT 128 mmol/kg) was 25% and the tumor growth [10] was “continued to grow”. The “effect on tumor growth/development when fed separately” value [10] was “enhanced tumor growth; also recorded: no observable inhibitory effect and indeed enhanced tumor development”, the “Tumor Incidence” value ([11]; 1% CGT in diet) was 55 and the “Tumors Per Rat” value ([11]; 1% CGT in diet) was 1.0. For the same molecule, the “No. of Rats with Tumors” value ([11]; 1% CGT in diet) was 11, the “Total No. Tumors” value ([11]; 1% CGT in diet) was 20 and the “Tumor Incidence” value ([11]; 2% CGT in diet) was 55. For the same molecule, the “Tumors Per Rat” value ([11]; 2% CGT in diet) was 1.0, the “No. of Rats with Tumors” value ([11]; 2% CGT in diet) was 11 and the “Total No. Tumors” value ([11]; 2% CGT in diet) was 20. For the same molecule, the “Tumor Incidence” value ([11]; 4% CGT in diet) was 35, the “Tumors Per Rat” value ([11]; 4% CGT in diet) was 0.5 and the “No. of Rats with Tumors” value ([11]; 4% CGT in diet) was 7. For the same molecule, the “Total No. Tumors” value ([11]; 4% CGT in diet) was 10, the “inhibition of tumor incidence” value ([11]; CGT (4%)) was 50-60% and the inhibition of tumors/rat ([11]; CGT (4%)) was 50-65%. For the same molecule, the “minimum dosage used alone consistent with maximum inhibition of carcinogenesis” value ([11]; CGT alone, 4 gm/100 gm of chow diet) was roughly 4 gm % and the chemopreventive activity [12] was “potent chemopreventative agent”.

For O=C(O)[C@@H](O)[C@H]1OC(=O)[C@H](O)[C@H]1O [GL, D-glucaro-1,4-lactone], the “free floating (mostly non viable) cells, % of control” value ([13]; GL (10^-3 M)) was 7 % of control, the “number of free floating (mostly non viable) cells” value ([13]; GL (10^-3 M)) was 4560 and the “No. of viable cells” value ([13]; GL (10^-3 M)) was 32560 ± 1800. For the same molecule, the “free floating (mostly non viable) cells, % of control” value ([13]; GL (10^-4 M)) was 6 % of control, the “number of free floating (mostly non viable) cells” value ([13]; GL (10^-4 M)) was 3440 and the “No. of viable cells” value ([13]; GL (10^-4 M)) was 49480 + 3160. The inhibition of beta-glucuronidase [1] was “potent inhibitor of beta-glucuronidase”.

For CC1=C(/C=C/C(C)=C/C=C/C(C)=C/C(=O)Nc2ccc(O)cc2)C(C)(C)CCC1 [HPR, N-(4-hydroxyphenyl) retinamide], the “Final Weight” value ([2]; HPR (0.75 mmol/kg)) was 421 +/- 14 gm, the “Initial Weight” value ([2]; HPR (0.75 mmol/kg)) was 409 +/- 18 gm and the “Final Weight” value ([2]; HPR (2.0 mmol/kg)) was 413 +/- 10 gm. The “Initial Weight” value ([2]; HPR (2.0 mmol/kg)) was 401 +/- 13 gm, the “free floating (mostly non viable) cells, % of control” value ([13]; HPR (5 × 10^-8 M)) was 7 % of control and the “number of free floating (mostly non viable) cells” value ([13]; HPR (5 × 10^-8 M)) was 4160. For the same molecule, the “No. of viable cells” value ([13]; HPR (5 × 10^-8 M)) was 33680 ± 2627, the “Estrogen Receptors” value ([6]; HPR (2.0 mmol/kg)) was 50.6 +/- 8.4 Fmoles/mg Protein and the “effect on weight gain” value [7] was “did not affect weight gain”. The “inhibition of tumor growth” value [14] was 50%, the “Progesterone Receptors” value ([9]; HPR (0.75 mmol/kg)) was 90.7 +/- 18.0 Fmoles/mg Protein and the “Progesterone Receptors” value ([9]; HPR (2.0 mmol/kg)) was 89.3 +/- 13.7 Fmoles/mg Protein. For the same molecule, the “increase of tumor size” value ([10]; HPR 0.75 mmol/kg) was 70%, the “decrease of mammary tumor size” value ([10]; HPR 2 mmol/kg) was 15% and the tumor growth [10] was “continued to grow”. For the same molecule, the “effect on tumor growth/development when fed separately” value [10] was “no observable inhibitory effect and indeed enhanced tumor development”, the “inhibition of tumor growth” value ([15]; 1.0 mmol/kg diet daily, within 10 days) was 80-90% and the tumor growth ([15]; 2 mmol/kg diet) was “growth arrest”. The “regression of DMBA-induced mammary tumors” value ([15]; 2 mmol/kg diet, within 5 to 10 days after growth arrest) was 30%, the “Tumor Incidence” value ([11]; 0.75 mmol/kg diet HPR) was 60 and the “Tumors Per Rat” value ([11]; 0.75 mmol/kg diet HPR) was 1.0. The “No. of Rats with Tumors” value ([11]; 0.75 mmol/kg diet HPR) was 12, the “Total No. Tumors” value ([11]; 0.75 mmol/kg diet HPR) was 20 and the “inhibition of tumor incidence” value ([11]; HPR (1.5 mmol)) was 50-60%. For the same molecule, the inhibition of tumors/rat ([11]; HPR (1.5 mmol)) was 50-65%, the “minimum dosage used alone consistent with maximum inhibition of carcinogenesis” value ([11]; HPR alone, in diet) was 1.0 to 1.5 mmol/kg and the tissue trophism [16] was “displays trophism for the mammary gland”.

For O=C(O)[C@@H](O)[C@@H](O)[C@H](O)[C@@H](O)C(=O)[O-].[K+] [potassium hydrogen glucarate, reference compound], the inhibition of beta-glucuronidase [1] is given as “effective as inhibitors of beta-glucuronidase”.
